In US20230293517A1, “ANTAGONIST COMPOUNDS” (AdoRx Therapeutics Limited, priority 2020, published 2023):
Several values for one entry are separate records, joined by “and”; a condition that tells them apart may be missing. Equal entries are not always repeated. Structures can show the parent of a compound that is named as a salt. Where two headings read alike, the source gives them in different places.

Tests used:
[1] = target: human Adenosine A2b receptor (Homo sapiens (Human), UniProt P29275); experiment: Adenosine receptor TR-FRET binding assay (A2b)
Procedure: (§1) Biological Example 1—Adenosine Receptor Time-Resolved Fluorescence Resonance Energy Transfer (TRFRET) Binding Assay
(§2) All FRET binding experiments were conducted at room temperature in white 384-well plates, in assay binding buffer containing 1×LabMed (Cisbio, France), 100 μg/mL saponin, 1% DMSO and 0.02% pluronic acid. Binding of the fluorescently labelled Adenosine receptor antagonist XAC (CA200645, FRET acceptor) to terbium-labelled A1, A2a, A2b and A3 adenosine receptors (FRET donors) was detected by time-resolved FRET due to the close proximity of the donor and acceptor in a binding event. To investigate the ability of unlabelled test compounds to bind to Adenosine A1, A2a, A2b and A3 receptors, dose response curves were constructed that determined the ability of a range of concentrations to inhibit the binding of 30 nM CA200645 to the A2b receptor and 100 nM CA200645 to the A1, A2a, and A3 receptor.
(§3) Serial dilution (1:3 dilutions) of test compounds in neat DMSO and transfer of a 400 nL sample of test compound into the assay plate was carried out using the Mosquito (TTP Labtech, UK). The compound samples were incubated for 2 hours at room temperature with a fixed concentration of CA200645 defined for each receptor (see above) and CHO cell membranes containing the human Adenosine A1 (0.5 μg/well), A2a (0.3 μg/well), A2b (1 μg/well) or A3 (1 μg/well) receptor in 40 μL of assay buffer. Total and non-specific binding of CA200645 was determined in the absence and presence of 10 μM XAC, respectively. Following 2 hours incubation, the level of CA200645 binding was detected on a Pherastar FSX (BMG Labtech, Germany) using standard TR-FRET settings. The terbium donor was excited with three laser flashes at a wavelength of 337 nm, and donor and acceptor emission was detected at 620 nm and 665 nm wavelengths, respectively. FRET ratios were obtained by multiplying the acceptor/donor ratio value by 10,000. Specific binding was determined by subtracting the non-specific binding FRET ratio from the total binding FRET ratio. Compound IC50 curves were analysed using GraphPad Prism 7.0 (GraphPad, USA) and Ki affinity values were determined from the obtained IC50 values using the method of Cheng and Prusoff.

[2] = target: human Adenosine A2a receptor (Homo sapiens (Human), UniProt P29274); experiment: Adenosine receptor TR-FRET binding assay (A2a); conditions: inhibition of binding of 100 nM CA200645, CHO cell membranes
Procedure: as §1, §2, §3

[3] = target: human Adenosine A1 receptor (Homo sapiens (Human), UniProt P30542); experiment: Adenosine receptor TR-FRET binding assay (A1); conditions: inhibition of binding of 100 nM CA200645, CHO cell membranes
Procedure: as §1, §2, §3

[4] = TR-FRET, inhibition of binding of 30 nM CA200645, CHO cell membranes

Sequence of human Adenosine A1 receptor (P30542 whole entry): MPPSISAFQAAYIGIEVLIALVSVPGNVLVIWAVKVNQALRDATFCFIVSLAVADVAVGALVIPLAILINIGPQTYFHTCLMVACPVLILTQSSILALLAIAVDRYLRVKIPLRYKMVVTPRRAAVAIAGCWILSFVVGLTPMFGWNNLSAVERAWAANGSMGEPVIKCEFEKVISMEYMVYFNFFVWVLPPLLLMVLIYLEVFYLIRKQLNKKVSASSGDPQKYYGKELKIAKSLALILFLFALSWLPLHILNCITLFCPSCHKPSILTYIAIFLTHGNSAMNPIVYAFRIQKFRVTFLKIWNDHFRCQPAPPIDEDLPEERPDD
Sequence of human Adenosine A2a receptor (P29274 whole entry): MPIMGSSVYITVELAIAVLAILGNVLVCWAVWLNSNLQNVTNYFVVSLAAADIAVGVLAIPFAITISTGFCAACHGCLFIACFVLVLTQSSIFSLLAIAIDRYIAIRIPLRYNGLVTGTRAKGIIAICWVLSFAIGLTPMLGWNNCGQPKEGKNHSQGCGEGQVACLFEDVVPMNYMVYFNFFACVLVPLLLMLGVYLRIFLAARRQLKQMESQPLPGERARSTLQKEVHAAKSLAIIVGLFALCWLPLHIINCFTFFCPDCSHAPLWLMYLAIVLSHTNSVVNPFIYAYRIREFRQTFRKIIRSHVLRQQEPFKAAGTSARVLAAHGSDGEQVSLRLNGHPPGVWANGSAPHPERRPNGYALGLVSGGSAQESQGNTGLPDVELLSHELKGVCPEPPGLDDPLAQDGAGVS
Sequence of human Adenosine A2b receptor (P29275 whole entry): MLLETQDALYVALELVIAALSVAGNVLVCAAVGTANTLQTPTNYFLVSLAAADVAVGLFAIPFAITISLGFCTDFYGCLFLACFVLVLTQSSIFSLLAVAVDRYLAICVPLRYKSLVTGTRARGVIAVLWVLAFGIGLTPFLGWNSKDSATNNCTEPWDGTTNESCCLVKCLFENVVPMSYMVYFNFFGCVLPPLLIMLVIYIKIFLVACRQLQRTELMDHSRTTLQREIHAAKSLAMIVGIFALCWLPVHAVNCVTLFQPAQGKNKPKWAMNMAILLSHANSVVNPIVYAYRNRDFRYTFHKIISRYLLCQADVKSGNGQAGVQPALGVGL

SMILES | Ki [1] [µM] | Ki [2] [µM] | Ki [1, 4] [µM] | Ki [3] [µM] | Ki ([1]; TR-FRET, inhibition of binding of 30 nM CA200645, CHO cell membranes, formate salt) | Ki ([3]; formate salt)
Cc1cc(-c2sc(NC(=O)N3C[C@@H]4NCCO[C@H]4C3)nc2-c2cccc(C#N)c2)cc(C)n1 (racemic) [Example 14.3, rac-(4aS,7aS)—N-[4-(3-Cyanophenyl)-5-(2,6-dimethyl-4-pyridyl)thiazol-2-yl]-3,4,4a,5,7,7a-hexahydro-2H-pyrrolo[3,4-b][1,4]oxazine-6-carboxamide 2,2,2-trifluoroacetic acid salt] | 0.0076 | 0.00349 |  |  |  | 
Cc1cc(-c2sc(NC(=O)N3C[C@@H](C)NC[C@@H]3C)nc2-c2cccc(C#N)c2)cc(C)n1 (relative stereo) [Example 7.11, trans-N-[4-(3-Cyanophenyl)-5-(2,6-dimethyl-4-pyridyl)thiazol-2-yl]-2,5-dimethyl-piperazine-1-carboxamide] |  | 0.0128 | 0.0787 | 0.11 |  | 
Cc1cc(-c2sc(NC(=O)N3CCCC3CC(C)(C)O)nc2-c2cccc(C#N)c2)cc(Cl)n1 (stereo not shown) [Example 3.3] |  | 0.00215 | 0.0039 | 0.136 |  | 
Cc1cc(-c2sc(NC(=O)N3CCN(CC(C)(C)O)CC3)nc2-c2cccc(C#N)c2)cc(C)n1 [Example 4.34, N-[4-(3-Cyanophenyl)-5-(2,6-dimethyl-4-pyridyl)thiazol-2-yl]-4-(2-hydroxy-2-methyl-propyl)piperazine-1-carboxamide] |  | 0.0122 | 0.013 | 0.268 |  | 
Cc1cc(-c2sc(NC(=O)N3CCC4(CCN4C)C3)nc2-c2cccc(C#N)c2)cc(C)n1 (stereo not shown) [Example 4.36, N-[4-(3-Cyanophenyl)-5-(2,6-dimethyl-4-pyridyl)thiazol-2-yl]-1-methyl-1,7-diazaspiro[3.4]octane-7-carboxamide formate salt] |  | 0.00248 | 0.0138 | 0.316 |  | 
Cc1cc(-c2sc(NC(=O)N3CCN(C(C)(C)CO)CC3)nc2-c2cccc(C#N)c2)cc(C)n1 [Example 4.37, N-[4-(3-Cyanophenyl)-5-(2,6-dimethyl-4-pyridyl)thiazol-2-yl]-4-(2-hydroxy-1,1-dimethyl-ethyl)piperazine-1-carboxamide] |  | 0.00429 | 0.0271 | 0.545 |  | 
Cc1cc(-c2sc(NC(=O)N3CCN4CCC[C@H]4C3)nc2-c2cccc(C#N)c2)cc(C)n1 [Example 4.38, (8aS)-N-[4-(3-Cyanophenyl)-5-(2,6-dimethyl-4-pyridyl)thiazol-2-yl]-3,4,6,7,8,8a-hexahydro-1H-pyrrolo[1,2-a]pyrazine-2-carboxamide formate salt] |  |  |  |  | 0.0081 µM and 0.0035 µM | 0.18 µM and 0.075 µM
Cc1cc(-c2sc(NC(=O)N3C[C@H]4CC[C@@H](C3)N(C)C4)nc2-c2cccc(C#N)c2)cc(C)n1 [Example 6.5, (1S,5S)-N-[4-(3-Cyanophenyl)-5-(2,6-dimethyl-4-pyridyl)thiazol-2-yl]-6-methyl-3,6-diazabicyclo[3.2.2]nonane-3-carboxamide] |  | 0.00463 | 0.0231 | 0.093 |  | 
Cc1cc(-c2sc(NC(=O)N3CCC(C)(C#N)CC3)nc2-c2cccc(C#N)c2)cc(C2COC2)n1 [Example 6.111, 4-Cyano-N-[4-(3-cyanophenyl)-5-[2-methyl-6-(oxetan-3-yl)-4-pyridyl]thiazol-2-yl]-4-methyl-piperidine-1-carboxamide] |  | 0.0002 | 0.0064 | 0.018 |  | 
Cc1cc(-c2sc(NC(=O)N3CC(N4CCOCC4)C3)nc2-c2cccc(C#N)c2)cc(C)n1 [Example 6.112, N-[4-(3-Cyanophenyl)-5-(2,6-dimethyl-4-pyridyl)thiazol-2-yl]-3-morpholino-azetidine-1-carboxamide] |  | 0.0043 | 0.0236 | 0.339 |  | 
Cc1cc(-c2sc(NC(=O)N3CCN(C4CCOCC4)CC3)nc2-c2cccc(C#N)c2)cc(C)n1 [Example 6.113, N-[4-(3-Cyanophenyl)-5-(2,6-dimethyl-4-pyridyl)thiazol-2-yl]-4-tetrahydropyran-4-yl-piperazine-1-carboxamide diformate salt] |  | 0.0108 | 0.0083 | 0.361 |  | 
Cc1cc(-c2sc(NC(=O)N3CC(N4CCCC4)C3)nc2-c2cccc(C#N)c2)cc(C)n1 [Example 6.114, N-[4-(3-Cyanophenyl)-5-(2,6-dimethyl-4-pyridyl)thiazol-2-yl]-3-pyrrolidin-1-yl-azetidine-1-carboxamide] |  | 0.00995 | 0.023 | 0.24 |  | 
Cc1cc(-c2sc(NC(=O)N3CC(N(C)C)C3)nc2-c2cccc(C#N)c2)cc(C)n1 [Example 6.115, N-[4-(3-Cyanophenyl)-5-(2,6-dimethyl-4-pyridyl)thiazol-2-yl]-3-(dimethylamino)azetidine-1-carboxamide] |  | 0.008 | 0.029 | 0.177 |  | 
Cc1cc(-c2sc(NC(=O)N3CCC(CN4CCOCC4)CC3)nc2-c2cccc(C#N)c2)cc(C)n1 [Example 6.116, N-[4-(3-Cyanophenyl)-5-(2,6-dimethyl-4-pyridyl)thiazol-2-yl]-4-(morpholinomethyl)piperidine-1-carboxamide formate salt] |  | 0.00739 | 0.01 | 0.281 |  | 
Cc1cc(-c2sc(NC(=O)N3CC4CN(C)CC43)nc2-c2cccc(C#N)c2)cc(C)n1 (stereo not shown) [Example 6.120, N-[4-(3-Cyanophenyl)-5-(2,6-dimethyl-4-pyridyl)thiazol-2-yl]-3-methyl-3,6-diazabicyclo[3.2.0]heptane-6-carboxamide] |  | 0.0111 | 0.0639 | 0.123 |  | 
Cc1cc(-c2sc(NC(=O)N3CCN4CCC3C4)nc2-c2cccc(C#N)c2)cc(C)n1 (stereo not shown) [Example 6.121, N-[4-(3-Cyanophenyl)-5-(2,6-dimethyl-4-pyridyl)thiazol-2-yl]-1,4-diazabicyclo[3.2.1]octane-4-carboxamide] |  | 0.00194 | 0.0068 | 0.123 |  | 
Cc1cc(-c2sc(NC(=O)N3CCC4(CC3)CNCCO4)nc2-c2cccc(C#N)c2)cc(C)n1 [Example 7.3, N-[4-(3-Cyanophenyl)-5-(2,6-dimethyl-4-pyridyl)thiazol-2-yl]-1-oxa-4,9-diazaspiro[5.5]undecane-9-carboxamide] |  | 0.00102 | 0.0057 | 0.208 |  | 
Cc1cc(-c2sc(NC(=O)N3C4CCC3CNC4)nc2-c2cccc(C#N)c2)cc(C)n1 [Example 7.4, N-[4-(3-Cyanophenyl)-5-(2,6-dimethyl-4-pyridyl)thiazol-2-yl]-3,8-diazabicyclo[3.2.1]octane-8-carboxamide] |  | 0.00273 | 0.0135 | 0.058 |  | 
Cc1cc(-c2sc(NC(=O)N3C4CNCC3C4)nc2-c2cccc(C#N)c2)cc(C)n1 [Example 7.5, N-[4-(3-Cyanophenyl)-5-(2,6-dimethyl-4-pyridyl)thiazol-2-yl]-3,6-diazabicyclo[3.1.1]heptane-6-carboxamide] |  | 0.00126 | 0.0119 | 0.009 |  | 
Cc1cc(-c2sc(NC(=O)N3C[C@H]4CC[C@@H]3CN4)nc2-c2cccc(C#N)c2)cc(C)n1 [Example 7.6, (1R,4R)—N-[4-(3-Cyanophenyl)-5-(2,6-dimethyl-4-pyridyl)thiazol-2-yl]-2,5-diazabicyclo[2.2.2]octane-2-carboxamide] |  | 0.00409 | 0.0226 | 0.162 |  | 
